In patent US20260259195A1, “REAL-TIME TRACKING OF APOPTOSIS” (FUNDACIÓ INSTITUT DE BIOENGINYERIA DE CATALUNYA (IBEC), priority 2022, published 2026):
Entries after “also recorded” stand apart in the source; their conditions may differ. Read-outs that look alike come from different tables or passages of the source.

Key:
[1] = tested on: GIST-T1 cell line; assay: Real-time tracking of apoptosis (RTA) with flow cytometry; format: cell-based; conditions: 16 h drug pre-treatment; titration of combination A, 3 hours
[2] = tested on: GIST-T1/670 cell line; assay: as above; format: cell-based; conditions: 16 h drug pre-treatment; titration of combination A, 3 hours
[3] = tested on: GIST-T1/670 cell line; assay: RTA with fluorescence microscopy (TMRE); format: cell-based; conditions: 16 h drug pre-treatment; titration of combination A, 3 hours
[4] = tested on: GIST-T1 cell line; conditions: 16 h drug pre-treatment (imatinib 1000 nM, gefitinib 1000 nM); BIM peptide titration with digitonin
[5] = tested on: GIST-T1/670 cell line; conditions: 16 h drug pre-treatment (imatinib 1000 nM, gefitinib 1000 nM); BIM peptide titration with digitonin
[6] = tested on: GIST-T1 cell line; conditions: 16 h drug pre-treatment; for Percentage of TMRE positive cells, dose-response curve versus control: titration of combination A, 3 hours
[7] = tested on: GIST-T1 cells; conditions: 16 h drug pre-treatment; combination A gradient generated by the device

SMILES | Percentage of cytochrome c retained, dose-response curve versus control [1] | Percentage of cytochrome c retained, dose-response curve versus control [2] | Percentage of TMRE positive cells, dose-response curve versus control [3] | Percentage of cytochrome c retained, dose-response curve versus control [4] | Percentage of cytochrome c retained, dose-response curve versus control [5] | Percentage of TMRE positive cells, dose-response curve versus control [6] | Percentage of TMRE positive cells, dose-response curve versus control [7] | Δ% priming ([6]; microscopy RTA with combination A)
COc1cc2ncnc(Nc3ccc(F)c(Cl)c3)c2cc1OCCCN1CCOCC1 [gefitinib] | produced the same curve as the control conditions | produced the same curve as the control conditions | produced an unaltered curve | showed a similar profile as the control | the same dose-response curve | this was not observed | the same response | 
Cc1ccc(NC(=O)c2ccc(CN3CCN(C)CC3)cc2)cc1Nc1nccc(-c2cccnc2)n1 [imatinib] |  |  | produced an unaltered curve |  |  | caused a shift of the curve identifying an increase in apoptotic priming; also recorded: induction of apoptotic priming |  | a clear increase in apoptotic priming; also recorded: increase of apoptotic priming
